The results in this text go back to publication PMC8015787 (Biochemistry, 2021).

For this assay, the target named is T1, 1-deoxy-D-xylulose 5-phosphate synthase (DXPS) (Escherichia coli, UniProt P77488).
T1 sequence (P77488 2-620): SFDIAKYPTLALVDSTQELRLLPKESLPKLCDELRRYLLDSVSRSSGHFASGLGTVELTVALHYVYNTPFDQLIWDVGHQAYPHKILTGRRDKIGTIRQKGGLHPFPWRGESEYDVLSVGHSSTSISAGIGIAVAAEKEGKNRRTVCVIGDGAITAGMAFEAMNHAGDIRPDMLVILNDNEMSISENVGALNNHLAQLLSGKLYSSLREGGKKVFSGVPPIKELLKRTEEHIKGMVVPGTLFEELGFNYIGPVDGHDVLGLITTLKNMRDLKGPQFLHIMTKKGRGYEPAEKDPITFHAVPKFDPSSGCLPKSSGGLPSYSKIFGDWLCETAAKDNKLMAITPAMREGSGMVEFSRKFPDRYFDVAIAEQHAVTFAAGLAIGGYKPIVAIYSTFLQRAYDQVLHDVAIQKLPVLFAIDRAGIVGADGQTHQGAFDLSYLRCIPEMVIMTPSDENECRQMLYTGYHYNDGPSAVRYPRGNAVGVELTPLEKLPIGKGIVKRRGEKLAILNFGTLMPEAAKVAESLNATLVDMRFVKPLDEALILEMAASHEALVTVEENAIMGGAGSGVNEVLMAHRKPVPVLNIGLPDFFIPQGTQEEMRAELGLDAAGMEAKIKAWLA
In words: CD titration of the ThDP-bound pre-decarboxylation intermediate, anaerobic. Type of assay: binding.

Each structure is given as a SMILES string.

For `CCC(=O)C(=O)O` [compound 2, ketobutyrate], binding was characterised by a dissociation constant (Kd) of 16 ± 9 µM.

For orientation: Kd means the constant that tells how readily two partners part at equilibrium.
